The source of these data is patent US8993762B2, “Total synthesis of thaxtomin A analogues and their intermediates” (Marrone Bio Innovations, Inc, priority 2013, dated 2015).

In assay [1] the test system is mustard plants. Briefly: Comparison of herbicidal activity, track-sprayer application to mustard plants. Format: in vivo. As to conditions: fifteen day mustard plants; sprayed at 0.25 and 1.0 mg/mL; counted on the 7th and 14th days; four replicates. On the procedure:
Synthesized thaxtomin A and thaxtomin A from fermentation were separately dissolved in ethanol first (final ethanol concentration in the spraying solution was 2%), then added into 0.2% Glycosperse O-20 water solution. Sonication completely dissolved the thaxtomin A. The concentration of thaxtomin A was 0.25 and 1.0 mg/mL. Water with 2% ethanol and 0.2% Glycosperse O-20 was used as a blank control. Fifteen day mustard plants were used in the experiments. Four replicates for each concentration of thaxtomin A were carried out. Spraying was performed using a Track Sprayer. The herbicidal activity was graded as percent control. Herbicidal activity was counted on the 7th and 14th days, respectively.

In assay [2] the test system is plant cells. Conditions: Lawrence et al., 1990; cited from earlier work.

As for `CN1C(=O)[C@](O)(Cc2cccc(O)c2)N(C)C(=O)[C@@H]1Cc1c[nH]c2cccc([N+](=O)[O-])c12` [Synthesized thaxtomin A, Thaxtomin A], in assay [1], the “herbicidal activity graded as percent control, synthesized vs natural thaxtomin A” value is “no significant difference”. The “effect on plant cells” value in assay [2] was “hypertrophy of plant cells at nanomolar amounts”.

For `CN1C(=O)[C@](O)(Cc2cccc(O)c2)N(C)C(=O)[C@@H]1Cc1c[nH]c2cccc([N+](=O)[O-])c12` [thaxtomin A from fermentation, thaxtomin A], the “herbicidal activity graded as percent control, synthesized vs natural thaxtomin A” value in assay [1] was “no significant difference”.
